Experimental data taken from the CheMixHub viscosity set.
Several values for one entry are separate records, joined by “and”; a condition that tells them apart may be missing. Equal values may be shown once.

Test: xn = mol fraction of the nth substance listed

Clc1ccc(Cl)c(Cl)c1 + Nc1ccccc1Cl
viscosity [mPa·s], 101 kPa
Settings | x2 = 0.1164 | x2 = 0.2287 | x2 = 0.337 | x2 = 0.4415 | x2 = 0.5425 | x2 = 0.6402 | x2 = 0.7346 | x2 = 0.8259 | x2 = 0.9143
303.15 K | 1.936 | 2.118 | 2.307 | 2.504 | 2.708 | 2.919 | 3.137 | 3.361 | 3.59
308.15 K | 1.773 | 1.935 | 2.103 | 2.277 | 2.456 | 2.639 | 2.827 | 3.018 | 3.214
313.15 K | 1.614 | 1.761 | 1.912 | 2.067 | 2.226 | 2.388 | 2.553 | 2.72 | 2.889
318.15 K | 1.46 | 1.595 | 1.734 | 1.875 | 2.019 | 2.165 | 2.313 | 2.462 | 2.612

CC(N)C(=O)O (stereo not drawn) + O
viscosity, 101 kPa
Settings | x1 = 0.0004 | x1 = 0.0007 | x1 = 0.001 | x1 = 0.0018 | x1 = 0.0022 | x1 = 0.0025 | x1 = 0.0029 | x1 = 0.0032 | x1 = 0.0036
293.15 K | 1.006 mPa·s | 1.012 mPa·s | 1.017 mPa·s and 1.022 mPa·s | – | – | 1.038 mPa·s | 1.043 mPa·s | – | –
298.15 K | 0.8956 mPa·s | 0.9003 mPa·s | 0.9054 mPa·s | 0.915 mPa·s | 0.9199 mPa·s | 0.9246 mPa·s | 0.929 mPa·s | 0.934 mPa·s | 0.9389 mPa·s
303.15 K | 0.8028 mPa·s | 0.8077 mPa·s | 0.8122 mPa·s | 0.8213 mPa·s | 0.8256 mPa·s | 0.8299 mPa·s | 0.8341 mPa·s | 0.8382 mPa·s | 0.8429 mPa·s
308.15 K | 0.7254 mPa·s | 0.7303 mPa·s | 0.7349 mPa·s | 0.7436 mPa·s | 0.7478 mPa·s | 0.7519 mPa·s | 0.7558 mPa·s | 0.7599 mPa·s | 0.7635 mPa·s
313.15 K | 0.6592 mPa·s | 0.6641 mPa·s | 0.6726 mPa·s | 0.6767 mPa·s | 0.6804 mPa·s | – | 0.688 mPa·s | 0.6916 mPa·s | 0.6953 mPa·s

CCCCCCCCCCCCCC[P+](CCCCCC)(CCCCCC)CCCCCC.c1ccc2[n-]cnc2c1 + O
Settings | viscosity [mPa·s]
298.15 K, 100 kPa, x2 = 0.759 | 207

Nc1ccn([C@@H]2O[C@H](CO)C(O)C2O)c(=O)n1 (stereo partly drawn) + O
viscosity [mPa·s], 101.3 kPa
Settings | 293.15 K | 298.15 K | 303.15 K | 308.15 K | 313.15 K | 318.15 K
x1 = 0.0001861 | – | 0.895 | – | 0.723 | – | 0.6
x1 = 0.000263 | 1.008 | 0.897 | 0.809 | 0.74 | 0.625 | –
x1 = 0.000342 | 1.009 | 0.898 | 0.81 | 0.741 | 0.626 | –
x1 = 0.0003829 | – | 0.899 | – | 0.727 | – | 0.603
x1 = 0.000448 | 1.012 | 0.901 | 0.813 | 0.744 | 0.628 | –
x1 = 0.000537 | 1.014 | 0.903 | 0.815 | 0.746 | 0.63 | –
x1 = 0.0005621 | – | 0.903 | – | 0.73 | – | 0.606
x1 = 0.000632 | 1.016 | 0.905 | 0.817 | 0.748 | 0.632 | –
x1 = 0.000689 | – | 0.906 | – | 0.733 | – | 0.608
x1 = 0.000722 | 1.018 | 0.907 | 0.819 | 0.75 | 0.634 | –
x1 = 0.0007525 | – | 0.907 | – | 0.734 | – | 0.609
x1 = 0.0007845 | – | 0.909 | – | 0.735 | – | 0.609

O=[N+]([O-])[O-].O=[N+]([O-])[O-].O=[N+]([O-])[O-].[Y+3] + O
viscosity [mPa·s], 101.3 kPa
Settings | x1 = 0.008908 | x1 = 0.01764 | x1 = 0.02626 | x1 = 0.03447 | x1 = 0.05042 | x1 = 0.06636 | x1 = 0.08199
293.15 K | 1.335 | 1.809 | 2.474 | 3.484 | 7.18 | 15.24 | 33.5
298.15 K | 1.191 | 1.61 | 2.197 | 3.056 | 6.164 | 12.8 | 26.72
308.15 K | 0.9655 | 1.305 | 1.765 | 2.405 | 4.677 | 8.991 | 18.14

[Br-].[K+] + O
Settings | viscosity
293.15 K, 101.3 kPa, x1 = 0.0009 | 0.9993 mPa·s
293.15 K, 101.3 kPa, x1 = 0.0018 | 0.9961 mPa·s
293.15 K, 101.3 kPa, x1 = 0.00893 | 0.9721 mPa·s
293.15 K, 101.3 kPa, x1 = 0.03478 | 0.9229 mPa·s
293.15 K, 101.3 kPa, x1 = 0.05127 | 0.9162 mPa·s
293.15 K, 101.3 kPa, x1 = 0.06722 | 0.9253 mPa·s
298.15 K, 100 kPa, x1 = 0.002229 | 0.8854 mPa·s
298.15 K, 100 kPa, x1 = 0.004266 | 0.8805 mPa·s
298.15 K, 100 kPa, x1 = 0.008299 | 0.8743 mPa·s
298.15 K, 100 kPa, x1 = 0.03864 | 0.8498 mPa·s
298.15 K, 101.3 kPa, x1 = 0.0009 | 0.8884 mPa·s and 0.8888 mPa·s
298.15 K, 101.3 kPa, x1 = 0.001798 | 0.8873 mPa·s
298.15 K, 101.3 kPa, x1 = 0.0018 | 0.8862 mPa·s
298.15 K, 101.3 kPa, x1 = 0.00359 | 0.8842 mPa·s
298.15 K, 101.3 kPa, x1 = 0.005732 | 0.8803 mPa·s
298.15 K, 101.3 kPa, x1 = 0.008927 | 0.8746 mPa·s
298.15 K, 101.3 kPa, x1 = 0.00893 | 0.8692 mPa·s
298.15 K, 101.3 kPa, x1 = 0.01421 | 0.8666 mPa·s
298.15 K, 101.3 kPa, x1 = 0.0177 | 0.8529 mPa·s
298.15 K, 101.3 kPa, x1 = 0.02116 | 0.8588 mPa·s
298.15 K, 101.3 kPa, x1 = 0.03478 | 0.8352 mPa·s
298.15 K, 101.3 kPa, x1 = 0.05127 | 0.8342 mPa·s
303.15 K, 101.3 kPa, x1 = 0.0009 | 0.7962 mPa·s
303.15 K, 101.3 kPa, x1 = 0.0018 | 0.7947 mPa·s
303.15 K, 101.3 kPa, x1 = 0.00893 | 0.7827 mPa·s
303.15 K, 101.3 kPa, x1 = 0.03478 | 0.7609 mPa·s
303.15 K, 101.3 kPa, x1 = 0.05127 | 0.7639 mPa·s
303.15 K, 101.3 kPa, x1 = 0.06722 | 0.7781 mPa·s
308.15 K, 101.3 kPa, x1 = 0.0009 | 0.7187 mPa·s and 0.7188 mPa·s
308.15 K, 101.3 kPa, x1 = 0.001798 | 0.7187 mPa·s
308.15 K, 101.3 kPa, x1 = 0.0018 | 0.7177 mPa·s
308.15 K, 101.3 kPa, x1 = 0.00359 | 0.7178 mPa·s
308.15 K, 101.3 kPa, x1 = 0.005732 | 0.7165 mPa·s
308.15 K, 101.3 kPa, x1 = 0.008927 | 0.7145 mPa·s
308.15 K, 101.3 kPa, x1 = 0.00893 | 0.7095 mPa·s
308.15 K, 101.3 kPa, x1 = 0.01421 | 0.7121 mPa·s
308.15 K, 101.3 kPa, x1 = 0.0177 | 0.7021 mPa·s
308.15 K, 101.3 kPa, x1 = 0.02116 | 0.7104 mPa·s
308.15 K, 101.3 kPa, x1 = 0.03478 | 0.6969 mPa·s
308.15 K, 101.3 kPa, x1 = 0.05127 | 0.7029 mPa·s
308.15 K, 101.3 kPa, x1 = 0.06722 | 0.7189 mPa·s
312.45 K, 100 kPa, x1 = 0.002229 | 0.661 mPa·s
312.85 K, 100 kPa, x1 = 0.01672 | 0.6499 mPa·s
313.55 K, 100 kPa, x1 = 0.03864 | 0.6449 mPa·s
313.85 K, 100 kPa, x1 = 0.004266 | 0.6426 mPa·s
313.95 K, 100 kPa, x1 = 0.008299 | 0.6399 mPa·s
318.15 K, 101.3 kPa, x1 = 0.0009 | 0.5963 mPa·s and 0.5961 mPa·s
318.15 K, 101.3 kPa, x1 = 0.001798 | 0.5966 mPa·s
318.15 K, 101.3 kPa, x1 = 0.0018 | 0.596 mPa·s
318.15 K, 101.3 kPa, x1 = 0.00359 | 0.5969 mPa·s
318.15 K, 101.3 kPa, x1 = 0.005732 | 0.5913 mPa·s
318.15 K, 101.3 kPa, x1 = 0.008927 | 0.5975 mPa·s
318.15 K, 101.3 kPa, x1 = 0.00893 | 0.5928 mPa·s
318.15 K, 101.3 kPa, x1 = 0.01421 | 0.5983 mPa·s
318.15 K, 101.3 kPa, x1 = 0.0177 | 0.5908 mPa·s
318.15 K, 101.3 kPa, x1 = 0.02116 | 0.5998 mPa·s
318.15 K, 101.3 kPa, x1 = 0.03478 | 0.593 mPa·s
318.15 K, 101.3 kPa, x1 = 0.05127 | 0.6036 mPa·s
318.15 K, 101.3 kPa, x1 = 0.06722 | 0.6221 mPa·s
321.85 K, 100 kPa, x1 = 0.002229 | 0.5597 mPa·s
322.75 K, 100 kPa, x1 = 0.01672 | 0.5528 mPa·s
322.95 K, 100 kPa, x1 = 0.004266 | 0.552 mPa·s
